Reference: patent US5643931A, “Bisoxadiazolidine derivative” (Yamanouchi Pharmaceutical Co., Ltd., priority 1993, dated 1997)

Tested on: kk mice
Assay: Hypoglycemic action (blood sugar level decreasing ratio after 4 days of oral administration)
Format: in vivo
Details: 30 mg/day, daily for 4 days, in 0.5% methyl cellulose, six male kk mice per group, blood sampled before and on fifth day, *** = p<0.001
Protocol: Male kk mice of 4 to 5 w were purchased from CLEA Japan Inc. These animals were separately reared with a high calorie food (CMF, manufactured by Oriental Yeast), and the animals of which the body weight was more than 40 g were used in the test.
Measurement of the blood sugar level was carried out by collecting a 10 μl portion of blood from a tail vein, removing protein from the collected sample by its treatment with 100 μl of 0.33N perchloric acid, and after centrifugation, measuring glucose in the resulting supernatant by the glucose oxidase method. Six animals having a blood sugar level of more than 200 mg/dl were used as one group in the test.
Each drug was suspended in 0.5% methyl cellulose and orally administered daily for 4 days. Blood samples were collected before and on the fifth day of the drug administration from the tail vein. Blood sugar level was determined with the aforementioned method.
The hypoglycemic activity was expressed as the blood sugar level decreasing ratio to the pre-administration level and statistically evaluated as a significant threshold value of p=0.05.

O=c1[nH]c(=O)n(Cc2ccc(Oc3cccc(Oc4ccc(Cn5oc(=O)[nH]c5=O)cc4)c3)cc2)o1 [Example 6, 1,3-Bis[4-[(3,5-dioxo-1,2,4-oxadiazolidin-2-yl)methyl]phenoxy]benzene]
blood sugar level decreasing ratio to the pre-administration level: 53%
